In patent US8993782B2, “Cis-alkoxyspirocyclic biphenyl-substituted tetramic acid derivatives” (Bayer CropScience AG, priority 2006, dated 2015):

How the values were obtained:
Format in all cases: in vivo
Myzus persicae = Myzus persicae test, spray, activity boost by ammonium salt and penetrant (Example 2); conditions: 0.8 ppm active compound
Method: Activity Boost Through Ammonium/Phosphonium Salts in Combination with Penetrants
(§1) Solvent: 7 parts by weight of dimethylformamide
(§2) Emulsifier: 2 parts by weight of alkylaryl polyglycol ether
To produce a suitable preparation of active compound, 1 part by weight of active compound is mixed with the stated amounts of solvent and emulsifier, and the concentrate is diluted with water to the desired concentration. For application with ammonium salts or phosphonium salts and penetrants (rapeseed oil methyl ester 500 EW) these are added in each case in a concentration of 1000 ppm to the spray liquor.
Bell pepper plants (Capsicum annuum) which are heavily infested by the green peach aphid (Myzus persicae) are treated with the active compound preparation of the desired concentration by spraying to runoff point. After the desired period of time, the kill in % is determined. 100% means that all animals have been killed; 0% means that none of the animals have been killed.

Aphis gossypii [1] = assay: Aphis gossypii test, spray, ammonium salt and penetrant (Example 3); conditions: 20 ppm active compound
Method: Aphis gossypii Test Solvent: 7 parts by weight of dimethylformamide Emulsifier: 2 parts by weight of alkylaryl polyglycol ether To produce a suitable preparation of active compound, 1 part by weight of active compound is mixed with the stated amounts of solvent and emulsifier, and the concentrate is diluted with emulsifier-containing water to the desired concentration. For application with ammonium salts or phosphonium salts and penetrant (rapeseed oil methyl ester 500 EW) these are added in each case in a concentration of 1000 ppm (a.i.) to the spray liquor. Cotton plants (Gossypium hirsutum) which are heavily infested by the cotton aphid (Aphis gossypii) are treated with the active compound preparation of the desired concentration by spraying to runoff point. After the desired period of time, the kill in % is determined. 100% means that all aphids have been killed; 0% means that none of the aphids have been killed.

Aphis gossypii [2] = assay: Aphis gossypii test, spray, with/without ammonium salt (Example 1); conditions: 20 ppm active compound, cotton plants sprayed to runoff
Method: as §1, §2
To produce a suitable preparation of active compound, 1 part by weight of active compound is mixed with the stated amounts of solvent and emulsifier, and the concentrate is diluted with emulsifier-containing water to the desired concentration. For application with ammonium salts or phosphonium salts these are added in a concentration of 1000 ppm to the spray liquor.
Cotton plants (Gossypium hirsutum) which are severely infested with cotton aphids (Aphis gossypii) are treated by spraying to runoff point with the preparation of the active substance at the desired concentration.
After the desired period of time, the kill in % is determined. 100% means that all aphids have been killed; 0% means that none of the aphids have been killed.

Structure (SMILES)	Kill rate/% after 6 days (Myzus persicae; +AS (1000 ppm))	Kill rate/% after 6 days (Myzus persicae; +RME (1000 ppm))	Kill rate/% after 6 days (Myzus persicae; +RME + AS (1000 ppm each))	Kill rate/% after 6 days (Myzus persicae; bell pepper plants sprayed to runoff, no additive)	Kill rate/% after 6 days (Aphis gossypii [1]; +AS (1000 ppm))	Kill rate/% after 6 days (Aphis gossypii [1]; +RME (1000 ppm))	Kill rate/% after 6 days (Aphis gossypii [1]; +RME + AS (1000 ppm each))	Kill rate/% after 6 days (Aphis gossypii [1]; cotton plants sprayed to runoff, no additive)	Kill rate/% after 6 days (Aphis gossypii [2]; +AS (1000 ppm))	Kill rate/% after 6 days (Aphis gossypii [2]; no additive)
CO[C@H]1CC[C@]2(CC1)NC(=O)C(c1cc(-c3ccc(F)cc3)ccc1C)=C2O [I-a-1]	0%	30%	70%	10%	15%	70%	80%	5%		
COC1CCC2(CC1)NC(=O)C(c1c(C)ccc(-c3ccc(F)cc3)c1C)=C2O (stereo not shown) [I-a-2]									25%	15%
